In patent US20090247520A1, “INHIBITORS OF ANTIGEN RECEPTOR-INDUCED NF-kappa B ACTIVATION” (The Burnham Institute for Medical Research, priority 2008, published 2009):
Entries after “also recorded” stand apart in the source; their conditions may differ.

What was measured:
[1] = tested on: Anti-Lymphotoxin-β induced NF-κB luciferase activity; assay: NF-κB luciferase in HeLa cells induced by anti-Lymphotoxin-β receptor; assay type: cell-based; conditions: listed as CID-2858522
From the text: (§1) FIG. 1 is a flow chart of screening and counter-screenings for selective inhibitors of antigen-receptor induced NF-κB pathway. A total of 114,889 compounds were screened. From a screen of 53,280 commercially available compounds (left column), 519 hits were obtained, of which 248 reconfirmed using the same primary screening assay. […] From these 11 active compounds, one hit, CID-2858522, inhibited PMA/Ionomycin-induced production of cytokine IL-8 by the HEK293 cell line. CID-2858522 was then characterized (right column). PDB was substituted for PMA to confirm suppression of an alternative PKC activator. Pathway selectivity was assessed using panels of cell lines, starting with HEK293 cells in which each of the remaining NF-κB activation pathways was stimulated, showing inhibition only of PMA/Ionomycin-induced NF-κB reporter gene activity (panel 1). […]

[2] = tested on: phosphorylation of CARMA1; assay: PMA-induced CARMA1 phosphorylation in HEK293 cells (immunoblot); assay type: cell-based; conditions: CID-2858522 4 μM
Description: FIG. 7. CID-285852 inhibits IKKβ phosphorylation induced by PKC activators. (A) HEK293 cells were cultured in 0.5% FBS medium for 24 h and then treated with CID-2858522 (4 μM) or PKC inhibitor, Bisindolylmaleimide I (1 μM) for 2 hrs followed by PMA/Ionomycin (10 ng/mL; 5 ng/mL) for 2 h. Cell lysates were subjected to immunoprecipitation using anti-CARMA1 antibody and analyzed by immunoblotting with anti-phospho-CARMA1 antibody or anti-CARMA1 antibody. (B-E) HEK293 cells were transfected with plasmids encoding myc-CARMA1 in combination with plasmids encoding various other proteins including Caspase-8 (cys287ala) (B), HA-IKK-γ (C), HA-TAK1 (D), and TRAF6 (E). After 36 h. cells were cultured in 0.5% FBS medium for 12 h and then treated with CID-2858522 (4 μM) or Bisindolylmaleimide I (1 μM) for 2 hrs, followed by PMA/Ionomycin treatment (10 ng/mL; 5 ng/mL) for 2 hrs. Cell lysates were immunoprecipated using anti-myc antibody and analyzed by immunoblotting using anti-Caspase8 (B), anti-HA (C,D), or anti-TRAF6 (E) antibodies. […] Cell lysates were normalized for protein content and analyzed by immunoblotting using anti-FLIP and anti-alpha-tubulin antibodies. […] Cell lysates were immunoprecipitated using anti-IKK-β and analyzed by immunoblotting using anti-phospho-IKK-β antibody or anti-IKK-β antibody (as loading control). […]

CLL B-cells = assay: Cytotoxicity in CLL B-cells by ATP levels; assay type: cell-based, human; conditions: time-frame analyzed
[3] = tested on: γ-TriDAP (NOD1 agonist) stimulated IL-8 production; assay: IL-8 production by MCF7 cells stimulated with γ-TriDAP; assay type: cell-based; conditions: listed as CID-2858522
From the text: as §1

## Cc1cc2nc(NCCCO)n(CC(=O)c3cc(C(C)(C)C)c(O)c(C(C)(C)C)c3)c2cc1C [Compound 1, 2-(2-(3-Hydroxypropylamino)-5,6-dimethyl-1H-benzo[d]imidazol-1-yl)-1-(3,5-di-tert-butyl-4-hydroxyphenyl)ethanone]
[1]
  suppression of NF-κB luciferase, anti-Lymphotoxin-β in HeLa: failed to inhibit; also recorded: did not suppress
[2]
  effect on PMA-induced phosphorylation of CARMA1: no effect
CLL B-cells
  cytotoxicity in CLL B-cells: not due to cytotoxicity
[3]
  suppression of IL-8 production, γ-TriDAP-stimulated MCF7: failed to inhibit; also recorded: did not suppress
